Data as given in the NIST ThermoML archive (doi:10.1016/j.jct.2006.07.022).

Test: xn = mol fraction of the nth substance listed
Conditions: 101 kPa, Liquid

CN(C)C=O [dimethylformamide] + c1ccccc1
Conditions | mass density [kg/m3]
293.15 K, x2 = 0 | 948.58
293.15 K, x2 = 0.0785 | 943.13
293.15 K, x2 = 0.1347 | 939.28
293.15 K, x2 = 0.2036 | 934.59
293.15 K, x2 = 0.2699 | 930.11
293.15 K, x2 = 0.3352 | 925.71
293.15 K, x2 = 0.4034 | 921.13
293.15 K, x2 = 0.4874 | 915.49
293.15 K, x2 = 0.5432 | 911.72
293.15 K, x2 = 0.6044 | 907.55
293.15 K, x2 = 0.6705 | 903
293.15 K, x2 = 0.7413 | 898.06
293.15 K, x2 = 0.8056 | 893.49
293.15 K, x2 = 0.871 | 888.73
293.15 K, x2 = 0.9214 | 884.99
293.15 K, x2 = 0.9785 | 880.66
303.15 K, x2 = 0 | 939.46
303.15 K, x2 = 0.0689 | 934.59
303.15 K, x2 = 0.1354 | 929.93
303.15 K, x2 = 0.2037 | 925.19
303.15 K, x2 = 0.2701 | 920.6
303.15 K, x2 = 0.3387 | 915.87
303.15 K, x2 = 0.407 | 911.17
303.15 K, x2 = 0.4735 | 906.6
303.15 K, x2 = 0.5403 | 901.98
303.15 K, x2 = 0.6054 | 897.43
303.15 K, x2 = 0.6791 | 892.23
303.15 K, x2 = 0.7441 | 887.56
303.15 K, x2 = 0.81 | 882.75
303.15 K, x2 = 0.8741 | 877.97
303.15 K, x2 = 0.9245 | 874.12
303.15 K, x2 = 0.9784 | 869.92
313.15 K, x2 = 0 | 930.12
313.15 K, x2 = 0.0655 | 925.37
313.15 K, x2 = 0.1357 | 920.35
313.15 K, x2 = 0.2019 | 915.66
313.15 K, x2 = 0.2684 | 910.98
313.15 K, x2 = 0.336 | 906.21
313.15 K, x2 = 0.4063 | 901.26
313.15 K, x2 = 0.4726 | 896.57
313.15 K, x2 = 0.5367 | 892.03
313.15 K, x2 = 0.6038 | 887.24
313.15 K, x2 = 0.6792 | 881.8
313.15 K, x2 = 0.738 | 877.51
313.15 K, x2 = 0.8119 | 872.03
313.15 K, x2 = 0.873 | 867.4
313.15 K, x2 = 0.9314 | 862.88
313.15 K, x2 = 0.98 | 859.02
323.15 K, x2 = 0 | 920.55
323.15 K, x2 = 0.0785 | 914.76
323.15 K, x2 = 0.1359 | 910.58
323.15 K, x2 = 0.2021 | 905.79
323.15 K, x2 = 0.2687 | 901.01
323.15 K, x2 = 0.3364 | 896.14
323.15 K, x2 = 0.4066 | 891.09
323.15 K, x2 = 0.4735 | 886.28
323.15 K, x2 = 0.5415 | 881.37
323.15 K, x2 = 0.6092 | 876.44
323.15 K, x2 = 0.6736 | 871.72
323.15 K, x2 = 0.7453 | 866.4
323.15 K, x2 = 0.8089 | 861.6
323.15 K, x2 = 0.8797 | 856.16
323.15 K, x2 = 0.9374 | 851.62
323.15 K, x2 = 0.9777 | 848.38
333.15 K, x2 = 0 | 910.75
333.15 K, x2 = 0.0695 | 905.54
333.15 K, x2 = 0.1354 | 900.67
333.15 K, x2 = 0.2026 | 895.73
333.15 K, x2 = 0.2701 | 890.79
333.15 K, x2 = 0.3321 | 886.27
333.15 K, x2 = 0.4042 | 881.01
333.15 K, x2 = 0.475 | 875.82
333.15 K, x2 = 0.5487 | 870.41
333.15 K, x2 = 0.6014 | 866.51
333.15 K, x2 = 0.6758 | 860.97
333.15 K, x2 = 0.7371 | 856.36
333.15 K, x2 = 0.8142 | 850.48
333.15 K, x2 = 0.8809 | 845.28
333.15 K, x2 = 0.9398 | 840.58
333.15 K, x2 = 0.9785 | 837.43
343.15 K, x2 = 0 | 900.73
343.15 K, x2 = 0.0577 | 896.35
343.15 K, x2 = 0.1155 | 892
343.15 K, x2 = 0.1728 | 887.74
343.15 K, x2 = 0.2388 | 882.84
343.15 K, x2 = 0.299 | 878.39
343.15 K, x2 = 0.3652 | 873.49
343.15 K, x2 = 0.4202 | 869.41
343.15 K, x2 = 0.504 | 863.2
343.15 K, x2 = 0.5606 | 858.98
343.15 K, x2 = 0.6275 | 853.95
343.15 K, x2 = 0.6963 | 848.75
343.15 K, x2 = 0.7585 | 844
343.15 K, x2 = 0.8187 | 839.33
343.15 K, x2 = 0.8814 | 834.39
343.15 K, x2 = 0.9584 | 828.16
